Reference: patent US11555047B2, “One-step synthesis of phosphate-based inhibitors and applications thereof” (UNIVERSITY OF SOUTH CAROLINA, priority 2019, dated 2023)
Like-named read-outs stand apart in the source and are kept apart here.

Experiments:
[1] = biological target: T1, TcRPI-B (Trypanosoma cruzi, UniProt A0ACM8Q8A9); conditions: known TcRPI-B inhibitors, FIG. 2; cited from earlier work
[2] = biological target: T1, TcRPI-B; assay: TcRPI-B coupled enzyme assay following consumption of NADH at 340 nm; format: biochemical; conditions: for activity at 200 µM: compound 0.2 mM; for activity at 200 µM / activity at 500 µM / activity at 1000 µM / activity at 2000 µM: 2 mM R5P, mean of three determinations ± SD, read-out: percentage of TcRPI-B activity; for activity at 500 µM: compound 0.5 mM; for activity at 1000 µM: compound 1.0 mM; for activity at 2000 µM: compound 2.0 mM
Procedure: (§1) The activity of TcRPI-B was determined by a coupled enzyme assay following consumption of NADH at 340 nm, at 30° C., in a Beckman Coulter DU®600 Spectrophotometer, using a mixture containing 50 mM triethanolamine (pH 7.5), 5 mM MgCl2, […], 0.025 mM thiamine pyrophosphate, 1 unit of transketolase (EC 2.2.1.1), 1 unit of ribulose 5-phosphate 3-epimerase (EC 5.1.3.1), 20 units of triosephosphate isomerase (EC 5.3.1.1), 2 units of α-glycerophosphate dehydrogenase (EC 1.1.1.8), and 2 mM R5P for the screening of the inhibitors. For the determination of Ki, the concentration of R5P was 0.4 mM, 0.8 mM, and 2.0 mM.
(§2) The activity of TcRPE-1 was determined in the same reaction mixture, without TcRPI-B, and replacing R5P by 4 mM ribulose 5-phosphate (Ru5P). […] The reaction was started with the addition of TcRPI-B and further incubated for 10 minutes in the same tube, to surpass the lag observed with the recombinant RPI, and then the mixture was transferred to the spectrophotometer cuvette and the linear part of the progress curve was registered for 15 minutes. The screening of the inhibitors was performed using them at 0, 0.2, 0.5, 1.0 and 2.0 mM for both enzymes, TcRPI-B and TcRPE-1, and for the Ki determination for compound B (FIG. 4) the concentrations used were: 0, 10, 20, 40, 60 and 80 μM, at each R5P concentration used.

[3] = tested on: TcRPE-1; assay: TcRPE-1 coupled enzyme assay (same reaction mixture, without TcRPI-B, 4 mM Ru5P); format: biochemical, Trypanosoma cruzi; conditions: mean of three determinations ± SD
Procedure: as §1, §2

[4] = biological target: T1, TcRPI-B; assay: Trypsin digestion LC/MSMS of TcRPI-B exposed to Compound B; format: binding; conditions: 500 μM compound, 100 μM TcRPI-B, 4° C., 30 minutes
Procedure: Sample preparation: Purified TcRPI-B was buffer exchanged into 50 mM ammonium bicarbonate (pH 8.0) by using a PD-10 desalting column (GE Life Sciences). The concentration of TcRPI-B was adjusted to 100 μM for the monomer [TcRPI-B: M.W.=19,816 g/mol; ε280=5,120 M^−1 cm^−1] using an Agilent 8453 UV-Visible spectrophotometer. A protein test sample was incubated with compound B (FIG. 2) at a final concentration of 500 μM at 4° C. for 30 minutes and a control sample was prepared that was in the absence of compound B. Samples to be analyzed by LC/MSMS were first quantitated for protein content using a Pierce™ bicinchoninic acid (BCA) Protein Assay Kit and normalized to 50 μg of protein by diluting the appropriate amount of sample in 50 mM ammonium bicarbonate. Normalized samples were digested with trypsin at a 50:1 protein:trypsin concentration. Samples were incubated for 4 hours and then aliquoted for LC-MS analysis.
Nanoflow LC: Chromatographic separation was achieved using a Thermo Scientific™ EASY-nLC™ 1200 system (Bremen, Germany). Pico-frit columns were purchased from New Objective (Woburn, Mass.) and bomb packed to a length of 20-30 cm with reverse phase ReproSil-Pur® 120 Å C18-AQ 3 μm particles (Dr. Maisch, Germany). […]

Row | SMILES | Ki [1] [µM] | activity at 200 µM [2] [%] | activity at 500 µM [2] [%] | activity at 1000 µM [2] [%] | activity at 2000 µM [2] [%] | percentage of TcRPE-1 activity ([3]; compound 0.2 mM) [%] | percentage of TcRPE-1 activity ([3]; compound 0.5 mM) [%] | percentage of TcRPE-1 activity ([3]; compound 1.0 mM) [%] | percentage of TcRPE-1 activity ([3]; compound 2.0 mM) [%] | covalent labeling of TcRPI-B peptide V66-R86 [4] | Ki ([2]; Dixon plots, R5P 0.4, 0.8 and 2 mM, inhibitor 0-80 μM, mean of four independent experiments, read-out: inhibition constant (Ki)) [µM] | type of inhibition ([2]; plot of [R5P]/V vs. [B], three lines parallel)
1 | O=C[C@H](O)[C@H](O)[C@H](O)[C@H](O)COP(=O)(O)O [AlI6P] | 15000 | – | – | – | – | – | – | – | – | – | – | –
2 | O=C(NO)[C@H](O)[C@H](O)COP(=O)(O)O [Compound 4PEH, 4-phospho-D-erythronohydroxamic acid] | 1200 | – | – | – | – | – | – | – | – | – | – | –
3 | O=C(Cc1ccccc1)NCCOP(=O)(O)O [Compound A, 2-(2-phenylacetamido)ethyl dihydrogen phosphate] | – | 98.1 ± 3.2 | 97.4 ± 0.5 | 95.3 ± 4.2 | 89.2 ± 3.5 | 100 ± 5 | 91.9 ± 4.3 | 87.4 ± 3.1 | 85.9 ± 4.4 | – | – | –
4 | O=C(CI)NCCOP(=O)(O)O [Compound B, 2-(2-iodoacetamido)ethyl dihydrogen phosphate] | – | 25.2 ± 3.5 | 7.5 ± 3.9 | 1.2 ± 0.3 | 0 | 89.5 ± 4 | 89.5 ± 4 | 103 ± 5 | 57.4 ± 0.4 | bound irreversibly to C69 | 5.5 ± 0.1 | competitive inhibition
5 | O=C(CBr)NCCOP(=O)(O)O [Compound C, 2-(2-bromoacetamido)ethyl dihydrogen phosphate] | – | 78.5 ± 4.8 | 62.7 ± 5.9 | 41.3 ± 2.7 | 18.3 ± 2.5 | 91.1 ± 5.1 | 85.8 ± 4.4 | 77.3 ± 7.5 | 65.1 ± 5.2 | – | – | –
6 | O=C(CCl)NCCOP(=O)(O)O [Compound D, 2-(2-chloroacetamido)ethyl dihydrogen phosphate] | – | 107 ± 9 | 105 ± 7 | 98.5 ± 2.1 | 83.7 ± 8.9 | 100 ± 6 | 103 ± 5 | 95.5 ± 7.9 | 82.6 ± 12 | – | – | –
7 | O=C(CF)NCCOP(=O)(O)O [Compound E, 2-(2-fluoroacetamido)ethyl dihydrogen phosphate] | – | – | – | – | – | 111 ± 10 | 103 ± 7 | 93.2 ± 11.1 | 83.5 ± 9.7 | – | – | –
